# Biological target: T1, HDAC6 enzyme (Homo sapiens, UniProt Q9UBN7)
# T1 construct: transducing full length HDAC6 gene into Sf-9 insect cells; GST; purchased SignalChem; host or cells: Sf-9 insect cells
# T1 sequence (Q9UBN7 1-1215): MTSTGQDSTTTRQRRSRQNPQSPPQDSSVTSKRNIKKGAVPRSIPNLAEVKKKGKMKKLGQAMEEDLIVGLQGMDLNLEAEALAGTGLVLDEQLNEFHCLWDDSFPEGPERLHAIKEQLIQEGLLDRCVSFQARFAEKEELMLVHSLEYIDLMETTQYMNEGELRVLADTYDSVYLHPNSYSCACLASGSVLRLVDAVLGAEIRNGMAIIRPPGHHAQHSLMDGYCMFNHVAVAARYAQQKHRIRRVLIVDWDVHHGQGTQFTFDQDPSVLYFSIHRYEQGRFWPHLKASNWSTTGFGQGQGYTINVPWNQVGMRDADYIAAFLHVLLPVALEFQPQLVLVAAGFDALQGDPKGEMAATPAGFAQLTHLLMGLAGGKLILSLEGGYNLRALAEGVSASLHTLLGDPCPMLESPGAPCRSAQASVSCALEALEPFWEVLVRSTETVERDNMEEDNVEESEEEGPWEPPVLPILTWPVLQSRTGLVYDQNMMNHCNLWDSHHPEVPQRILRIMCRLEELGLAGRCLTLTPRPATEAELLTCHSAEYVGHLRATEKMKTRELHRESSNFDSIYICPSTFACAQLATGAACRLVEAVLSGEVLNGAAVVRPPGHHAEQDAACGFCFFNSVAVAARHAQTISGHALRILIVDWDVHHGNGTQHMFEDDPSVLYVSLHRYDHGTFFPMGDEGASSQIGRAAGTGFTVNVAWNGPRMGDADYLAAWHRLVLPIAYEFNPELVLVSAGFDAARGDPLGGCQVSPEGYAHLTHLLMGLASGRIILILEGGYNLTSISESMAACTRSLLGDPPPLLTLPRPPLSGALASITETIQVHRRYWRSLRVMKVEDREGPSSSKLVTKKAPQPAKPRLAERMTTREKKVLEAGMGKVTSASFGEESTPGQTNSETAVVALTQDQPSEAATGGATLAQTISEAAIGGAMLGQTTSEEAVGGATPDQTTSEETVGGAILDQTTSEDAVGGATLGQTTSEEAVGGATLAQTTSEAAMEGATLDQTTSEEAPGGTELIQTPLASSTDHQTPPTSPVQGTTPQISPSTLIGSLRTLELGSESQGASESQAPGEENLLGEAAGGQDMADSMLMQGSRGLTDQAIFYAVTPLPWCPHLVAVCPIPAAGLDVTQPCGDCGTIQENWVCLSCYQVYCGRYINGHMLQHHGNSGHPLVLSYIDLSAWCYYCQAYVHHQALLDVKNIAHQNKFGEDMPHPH
# Assay: HDAC6 enzyme inhibitory activity (HDAC-Glo I/II Assay kit)
# Type: biochemical
# Details: 10 μM; wells without enzyme = 100% inhibition; read-out: HDAC6 inhibitory rate (%) (10 μM)
# Outline: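 Test compound is preincubated 60 min at RT with full-length insect-cell HDAC6 in Tris-HCl pH 7.5 with 135 mM NaCl and 1 mM MgCl2. A 20 min room-temperature HDAC-Glo reaction follows, with luminescent read-out.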
row,SMILES,inhibition at 10 µM [%]
1,"C[C@@H](c1ccccc1)N1Cc2ncc(-c3nnc(C(F)F)o3)cc2C1=O [Example 475, 3-(5-(difluoro-methyl)-1,3,4-oxadiazol-2-yl)-6-((1S)-1-phenylethyl)-6,7-dihydro-5H-pyrrolo [3,4-b]pyridin-5-one]",100
2,"C[C@H](c1ccccc1)N1Cc2ncc(-c3nnc(C(F)F)o3)cc2C1=O [Example 476, 3-(5-(difluoro-methyl)-1,3,4-oxadiazol-2-yl)-6-((1R)-1-phenylethyl)-6,7-dihydro-5H-pyrrolo [3,4-b]pyridin-5-one]",100
3,"O=C1c2cc(-c3nnc(C(F)F)o3)cnc2CN1Cc1ccccc1OCC(F)F [Example 478, 6-(2-(2,2-difluoroethoxy)benzyl)-3-(5-(difluoro-methyl)-1,3,4-oxadiazol-2-yl)-6,7-dihydro-5H-pyrrolo [3,4-b]pyridin-5-one]",100
4,"O=C1c2cc(-c3nnc(C(F)F)o3)cnc2CN1Cc1cccc(-c2cnn(C(F)F)c2)c1 [Example 479, 3-(5-(difluoro-methyl)-1,3,4-oxadiazol-2-yl)-6-(3-(1-(difluoro-methyl)-1H-pyrazol-4-yl)benzyl)-6,7-dihydro-5H-pyrrolo[3,4-b] pyridin-5-one]",100
5,"Cn1cc(C2CCC(F)(F)CC2)c(N2Cc3ccc(-c4nnc(C(F)F)o4)cc3C2=O)n1 [Example 480, 2-(4-(4,4-difluorocyclo-hexyl)-1-methyl-1H-pyrazol-3-yl)-6-(5-(difluoro-methyl)-1,3,4-oxadiazol-2-yl) isoindolin-1-one]",101
6,"Cn1cc(-c2cccc3ccnn23)c(N2Cc3ccc(-c4nnc(C(F)F)o4)cc3C2=O)n1 [Example 481, 6-(5-(difluoro-methyl)-1,3,4-oxadiazol-2-yl)-2-(1-methyl-4-(pyrazolo[1,5-a]pyridin-7-yl)-1H-pyrazol-3-yl)isoindolin-1-one]",98
7,"O=C1c2cc(-c3nnc(C(F)F)o3)ccc2CN1c1ccc(OC(F)(F)F)cc1-c1ccccc1 [Example 485, 6-(5-(difluoro-methyl)-1,3,4-oxadiazol-2-yl)-2-(5-(trifluoro-methoxy)biphenyl-2-yl) isoindolin-1-one]",100
8,"O=C1c2cc(-c3nnc(C(F)F)o3)ccc2CN1c1ccccc1Cc1ccccc1 [Example 487, 2-(2-benzyl-phenyl)-6-(5-(difluoro-methyl)-1,3,4-oxadiazol-2-yl) isoindolin-1-one]",99
9,"O=C1c2cc(-c3nnc(C(F)F)o3)ccc2CN1N1CCCCC1c1ccccc1 (centres unmarked) [Example 490, 6-(5-(difluoro-methyl)-1,3,4-oxadiazol-2-yl)-2-(2-phenyl-piperidin-1-yl) isoindolin-1-one]",98
10,"O=C1c2cc(-c3nnc(C(F)F)o3)ccc2CN1N1CCCC1c1ccccc1 (centres unmarked) [Example 491, 6-(5-(difluoro-methyl)-1,3,4-oxadiazol-2-yl)-2-(2-phenyl-pyrrolidin-1-yl) isoindolin-1-one]",99
11,"COC(=O)N1CC[C@@H](N2Cc3ncc(-c4nnc(C(F)F)o4)cc3C2=O)[C@H](c2ccc(F)cc2)C1 [Example 494, methyl (3R,4R)-4-(3-(5-(difluoro-methyl)-1,3,4-oxadiazol-2-yl)-5-oxo-5,7-dihydro-6H-pyrrolo[3,4-b]pyridin-6-yl)-3-(4-fluoro-phenyl) piperidine-1-carboxylate]",100
12,"N[C@@H]1CCCC(F)(F)[C@H]1N1Cc2ncc(-c3nnc(C(F)F)o3)cc2C1=O [Example 495, 6-((1S,6R)-6-amino-2,2-difluorocyclo-hexyl)-3-(5-(difluoro-methyl)-1,3,4-oxadiazol-2-yl)-6,7-dihydro-5H-pyrrolo [3,4-b] pyridin-5-one]",89
13,"CC(C)(C)OC(=O)N[C@@H]1CCCC(F)(F)[C@H]1N1Cc2ncc(-c3nnc(C(F)F)o3)cc2C1=O [Example 496, tert-butyl ((1R,2S)-2-(3-(5-(difluoro-methyl)-1,3,4-oxadiazol-2-yl)-5-oxo-5,7-dihydro-6H-pyrrolo[3,4-b]pyridin-6-yl)-3,3-difluoro-cyclohexyl) carbamate]",100
14,"O=C1c2cc(-c3nnc(C(F)F)o3)cnc2CN1[C@H]1[C@H](NC(=O)C(F)(F)C(F)(F)F)CCCC1(F)F [Example 497, N-((1R,2S)-2-(3-(5-(difluoro-methyl)-1,3,4-oxadiazol-2-yl)-5-oxo-5,7-dihydro-6H-pyrrolo[3,4-b]pyridin-6-yl)-3,3-difluoro-cyclohexyl)-2,2,3,3,3-pentafluoro-propanamide]",101
15,"O=C(C1CC1)N1CC[C@@H](N2Cc3ncc(-c4nnc(C(F)F)o4)cc3C2=O)[C@H](c2ccc(F)cc2)C1 [Example 498, 6-((3R,4R)-1-(cyclopropyl-carbonyl)-3-(4-fluorophenyl)piperidin-4-yl)-3-(5-(difluoro-methyl)-1,3,4-oxadiazol-2-yl)-6,7-dihydro-5H-pyrrolo [3,4-b]pyridin-5-one]",100

# More lines, now with the values ahead:
row,inhibition at 10 µM [%],SMILES
1,95,"COc1ccc(N2Cc3ccc(-c4nnc(C(F)F)o4)cc3C2=O)c(Br)c1 [Example 477, 2-(2-bromo-4-methoxy-phenyl)-6-(5-(difluoro-methyl)-1,3,4-oxadiazol-2-yl) isoindolin-1-one]"
2,100,"O=C1c2cc(-c3nnc(C(F)F)o3)ccc2CN1c1ccc(F)cc1-n1cc(Br)cn1 [Example 482, 2-(2-(4-bromo-1H-pyrazol-1-yl)-4-fluoro-phenyl)-6-(5-(difluoro-methyl)-1,3,4-oxadiazol-2-yl) isoindolin-1-one]"
3,91,"O=C1c2cc(-c3nnc(C(F)F)o3)ccc2CN1c1ccc(OC(F)(F)F)cc1Br [Example 483, 2-(2-bromo-4-(trifluoro-methoxy)phenyl)-6-(5-(difluoro-methyl)-1,3,4-oxadiazol-2-yl) isoindolin-1-one]"
4,100,"COc1ccc(N2Cc3ccc(-c4nnc(C(F)F)o4)cc3C2=O)c(-c2ccccc2)c1 [Example 484, 6-(5-(difluoro-methyl)-1,3,4-oxadiazol-2-yl)-2-(5-methoxy-biphenyl-2-yl) isoindolin-1-one]"
5,100,"O=C1c2cc(-c3nnc(C(F)F)o3)ccc2CN1c1ccc(F)cc1-n1cc(C2CC2)cn1 [Example 486, 2-(2-(4-cyclo-propyl-1H-pyrazol-1-yl)-4-fluorophenyl)-6-(5-(difluoro-methyl)-1,3,4-oxadiazol-2-yl) isoindolin-1-one]"
6,100,"CCc1cnn(-c2cc(F)ccc2N2Cc3ccc(-c4nnc(C(F)F)o4)cc3C2=O)c1 [Example 488, 6-(5-(difluoro-methyl)-1,3,4-oxadiazol-2-yl)-2-(2-(4-ethyl-1H-pyrazol-1-yl)-4-fluoro-phenyl) isoindolin-1-one]"
7,91,"Cn1cc(N2Cc3ccc(-c4nnc(C(F)F)o4)cc3C2=O)c(Br)n1 [Example 492, 2-(3-bromo-1-methyl-1H-pyrazol-4-yl)-6-(5-(difluoro-methyl)-1,3,4-oxadiazol-2-yl) isoindolin-1-one]"
8,99,"Cn1cc(N2Cc3ccc(-c4nnc(C(F)F)o4)cc3C2=O)c(-c2ccccc2)n1 [Example 493, 6-(5-(difluoro-methyl)-1,3,4-oxadiazol-2-yl)-2-(1-methyl-3-phenyl-1H-pyrazol-4-yl) isoindolin-1-one]"
